Experimental findings from US10363257B2 (ZENITH EPIGENETICS LTD., priority 2013, dated 2019) are described below.

Bounds are passed on as bounds.

Test [1] concerns the target T1, Brd4 bromodomain 1 (BRD4(1)) (Homo sapiens, UniProt O60885).
T1 construct: made in house; host or cells: E. coli BL21(DE3)
The test is described as follows: Inhibition of tetra-acetylated histone H4 binding to Brd4 bromodomain 1 (TR-FRET). Particulars: tetra-acetylated histone H4 peptide, first bromodomain of Brd4. An outline of the steps:
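Serially diluted compound (0.2% DMSO) incubated 2 h at room temperature with 200 nM N-His BRD4 bromodomain 1 and 25-50 nM biotinylated tetra-acetyl H4 peptide, detected via Eu-streptavidin/XL665 anti-His. Loss of 665 nm relative to 620 nm signal gave IC50 from dose-response.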
(In TR-FRET formats the signal depends on donor and acceptor labels being close together.)

In test [2] the test system is c-myc. The test can be described thus: Inhibition of c-myc expression (mRNA, real-time PCR) in MV4-11 cells. Type of test: cell-based. Conditions: Human AML MV4-11 cells, 3 h, cMYC mRNA. In a few lines: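 One-step TaqMan qPCR of cMYC, normalized to an internal control with Cyclophilin probes run, gave fold expression versus DMSO (0.1%) control. Samples: triplicate MV4-11 wells exposed 3 h at 37° C to rising compound concentrations in IMDM with 10% FBS.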
(In general: In qPCR the cycle at which signal appears reflects the starting amount.)

The subject of test [3] is human AML MV-4-11 cells. The test can be described thus: Inhibition of cell proliferation in MV4-11 cells (CellTiter Aqueous One). Type of test: cell-based. Conditions: for IC50: MV4-11, 72 h. In a few lines: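 IC50 values come from blank-corrected proliferation relative to DMSO controls, read as 490 nm absorbance 3–4 h after CellTiter Aqueous One addition. Before that, cells seeded at 5×10^4/well were exposed for 72 h (37° C, 5% CO2) to triplicate two-fold compound dilutions spanning 30–0.2 μM.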

In test [4] the test system is hIL-6 mRNA. The test is described as follows: Inhibition of hIL-6 mRNA transcription in LPS-stimulated U937 cells. Format: cell-based. Conditions: Homo sapiens, U-937; PMA-differentiated U937 cells, 1 h pretreatment, 1 ug/mL LPS stimulation, 3 h; read-out: IL-6 activity (Inhibition of hIL-6 mRNA Transcription). Here is the method:
In this example, hIL-6 mRNA in tissue culture cells was quantitated to measure the transcriptional inhibition of hIL-6 when treated with a compound of the invention.
Human leukemic monocyte lymphoma U937 cells (CRL-1593.2) were plated at a density of 3.2×10^4 cells per well in a 96-well plate in 100 μL RPMI-1640 containing 10% FBS and penicillin/streptomycin, and differentiated into macrophages for 3 days in 60 ng/mL PMA ([…]) at 37° C. in 5% CO2 prior to the addition of compound. The cells were pretreated for 1 h with increasing concentrations of test compound in 0.1% DMSO prior to stimulation with 1 ug/mL lipopolysaccharide from Escherichia coli. Triplicate wells were used for each concentration. The cells were incubated at 37° C., 5% CO2 for 3 h before the cells were harvested. At time of harvest, media was removed and cells were rinsed in 200 μL PBS. Cells were harvested using the mRNA Catcher PLUS kit according to manufacturer's instructions. The eluted mRNA was then used in a one-step quantitative real-time PCR reaction using components of the RNA UltraSense™ One-Step Kit (Life Technologies) together with Applied Biosystems TaqMan® primer-probes for hIL-6 and Cyclophilin. Real-time PCR plates were run on a VIa™ 7 real time PCR machine (Applied Biosystems), data was analyzed, normalizing the Ct values for hIL-6 to an internal control, prior to determining the fold expression of each sample, relative to the control.

`Cc1noc(C)c1-c1ccc2[nH]c(=O)n(Cc3ccccc3)c2n1` [Example Compound 2, 3-Benzyl-5-(3,5-dimethylisoxazol-4-yl)-1H-imidazo[4,5-b]pyridin-2(3H)-one]: the IC50 in test [1] was no more than 0.3 µM; in test [2], 3 to 30 µM; in test [3] it was 0.3 to 3 µM; in test [4], 0.3 to 3 µM.

On to `Cc1noc(C)c1-c1ccc2c(n1)[nH]c(=O)n2Cc1ccccc1` [Example Compound 3, 1-Benzyl-5-(3,5-dimethylisoxazol-4-yl)-1H-imidazo[4,5-b]pyridin-2(3H)-one], for which the IC50 in test [1] lay in the range of 0.3 to 3 µM; in test [2], 3 to 30 µM; in test [3] it was 3 to 30 µM; in test [4], 3 to 30 µM.

With `Cc1noc(C)c1-c1cnc2c(c1)ncn2Cc1ccccc1` [Example Compound 4, 4-(3-Benzyl-3H-imidazo[4,5-b]pyridin-6-yl)-3,5-dimethylisoxazole], the IC50 in test [1] is 0.3 to 3 µM; in test [2] it was 0.3 to 3 µM; in test [3] it was 3 to 30 µM; in test [4] it was 0.3 to 3 µM.

On to `Cc1noc(C)c1-c1ccc2oc(=O)n(Cc3ccccc3)c2c1` [Example Compound 6, 3-Benzyl-5-(3,5-dimethylisoxazol-4-yl)benzo[d]oxazol-2(3H)-one], for which the IC50 in test [1], in test [2], in test [3] and in test [4] was 0.3 to 3 µM in each case.

Consider `Cc1noc(C)c1-c1cc(NCc2ccccc2)c2ncn(Cc3ccccc3)c2c1` [Example Compound 9, N,1-Dibenzyl-6-(3,5-dimethylisoxazol-4-yl)-1H-benzo[d]imidazol-4-amine], for which the IC50 in test [1], in test [2], in test [3] and in test [4] was 3 to 30 µM in each case.

With `Cc1noc(C)c1-c1ccc2c(c1)N(Cc1ccccc1)C(=O)NC2` [Example Compound 12, 1-Benzyl-7-(3,5-dimethylisoxazol-4-yl)-3,4-dihydroquinazolin-2(1H)-one], the IC50 in test [1] was no more than 0.3 µM; in test [2] it was 0.3 to 3 µM; in test [3], 0.3 to 3 µM; in test [4], 0.3 to 3 µM.

`Cc1noc(C)c1-c1cc([N+](=O)[O-])c2nc(C)n(CC3CC3)c2c1` [Example Compound 14, 4-(1-(cyclopropylmethyl)-2-methyl-4-nitro-1H-benzo[d]imidazol-6-yl)-3,5-dimethylisoxazole]: the IC50 in test [1] was no more than 0.3 µM; in test [2], 0.3 to 3 µM; in test [3], 3 to 30 µM; in test [4], 0.3 to 3 µM.

As to `Cc1noc(C)c1-c1cc([N+](=O)[O-])c2[nH]c(=O)n(Cc3ccccc3)c2c1` [Example Compound 15, 1-benzyl-6-(3,5-dimethylisoxazol-4-yl)-4-nitro-1H-benzo[d]imidazol-2(3H)-one], the IC50 in test [1] was no more than 0.3 µM; in test [2], 0.3 to 3 µM; in test [3], 0.3 to 3 µM; in test [4], 0.3 to 3 µM.

In the case of `CCOc1nc2c(N)cc(-c3c(C)noc3C)cc2n1Cc1ccccc1` [Example Compound 17, 1-benzyl-6-(3,5-dimethylisoxazol-4-yl)-2-ethoxy-1H-benzo[d]imidazol-4-amine], the IC50 in test [1] was no more than 0.3 µM; in test [2] it was no more than 0.3 µM; in test [3], 0.3 to 3 µM; in test [4], 0.3 to 3 µM.

Regarding `Cc1noc(C)c1-c1cc(CN)c2[nH]c(=O)n(Cc3ccccc3)c2c1` [Example Compound 22, 4-(aminomethyl)-1-benzyl-6-(3,5-dimethylisoxazol-4-yl)-1H-benzo[d]imidazol-2(3H)-one], the IC50 in test [1], in test [2], in test [3] and in test [4] was 0.3 to 3 µM throughout.

Turning to `Cc1noc(C)c1-c1cnc2ncn(Cc3ccc(C(F)(F)F)cc3)c2c1` [Example Compound 41, 3,5-dimethyl-4-(1-(4-(trifluoromethyl)benzyl)-1H-imidazo[4,5-b]pyridin-6-yl)isoxazole], the IC50 in test [1] was no more than 0.3 µM; in test [3], 0.3 to 3 µM; in test [4], 3 to 30 µM.

Consider `Cc1noc(C)c1-c1cnc2ncn(Cc3ccc(Cl)cc3)c2c1` [Example Compound 43, 4-(1-(4-chlorobenzyl)-1H-imidazo[4,5-b]pyridin-6-yl)-3,5-dimethylisoxazole], for which the IC50 in test [1] is no more than 0.3 µM; in test [3] it was 0.3 to 3 µM; in test [4], 0.3 to 3 µM.

Take `Cc1noc(C)c1-c1cnc2nc(C)n(CC3CC3)c2c1` [Example Compound 63, 4-(1-(cyclopropylmethyl)-2-methyl-1H-imidazo[4,5-b]pyridin-6-yl)-3,5-dimethylisoxazole]: the IC50 is 0.3 to 3 µM in test [1], 3 to 30 µM in test [2] and 0.3 to 3 µM in test [4].

With `Cc1noc(C)c1-c1cnc2nc(C)n(Cc3ccc(C#N)cc3)c2c1` [compound 70, 4-((6-(3,5-dimethylisoxazol-4-yl)-2-methyl-1H-imidazo[4,5-b]pyridin-1-yl)methyl)benzonitrile], the IC50 is no more than 0.3 µM in test [1], 3 to 30 µM in test [3] and 0.3 to 3 µM in test [4].

Consider `Cc1noc(C)c1-c1cc(C#N)c2nc(C)n(Cc3ccccc3)c2c1` [compound 85, 1-benzyl-6-(3,5-dimethylisoxazol-4-yl)-2-methyl-1H-benzo[d]imidazole-4-carbonitrile], for which the IC50 was no more than 0.3 µM in test [1], no more than 0.3 µM in test [2] and 0.3 to 3 µM in test [4].

Take `Cc1noc(C)c1-c1cc([N+](=O)[O-])c2nc(N3CCCC3)n(Cc3ccccc3)c2c1` [compound 135, 4-(1-benzyl-4-nitro-2-(pyrrolidin-1-yl)-1H-benzo[d]imidazol-6-yl)-3,5-dimethylisoxazole]: the IC50 is no more than 0.3 µM in test [1], 0.3 to 3 µM in test [3] and no more than 0.3 µM in test [4].

With `Cc1noc(C)c1-c1cc([N+](=O)[O-])c2nc(N3CCN(C)CC3)n(Cc3ccccc3)c2c1` [compound 136, 4-(1-benzyl-2-(4-methylpiperazin-1-yl)-4-nitro-1H-benzo[d]imidazol-6-yl)-3,5-dimethylisoxazole], the results for the IC50 in test [1], in test [3] and in test [4] were no more than 0.3 µM, 0.3 to 3 µM and 0.3 to 3 µM, respectively.

Take `COCCNc1nc2c([N+](=O)[O-])cc(-c3c(C)noc3C)cc2n1Cc1ccccc1` [compound 137, 1-benzyl-6-(3,5-dimethylisoxazol-4-yl)-N-(2-methoxyethyl)-4-nitro-1H-benzo[d]imidazol-2-amine]: the IC50 in test [1], in test [3] and in test [4] was no more than 0.3 µM throughout.

In the case of `Cc1noc(C)c1-c1cc([N+](=O)[O-])c2c(c1)n(Cc1ccccc1)c(=O)n2C` [compound 150, 1-benzyl-6-(3,5-dimethylisoxazol-4-yl)-3-methyl-4-nitro-1H-benzo[d]imidazol-2(3H)-one], the IC50 is no more than 0.3 µM in test [1] and 0.3 to 3 µM in test [4]. In test [3] (72 h), the “Cell Proliferation activity” value is “Not active”.

For `Cc1nc2ncc(-c3ccnn3C)cc2n1Cc1ccccc1` [compound 154, 1-benzyl-2-methyl-6-(1-methyl-1H-pyrazol-5-yl)-1H-imidazo[4,5-b]pyridine], the results for the IC50 in test [1], in test [3] and in test [4] were no more than 0.3 µM, 3 to 30 µM and 3 to 30 µM, respectively.

`Cc1noc(C)c1-c1cc(N)c2c(c1)n(Cc1ccccc1)c(=O)n2C` [compound 162, 4-amino-1-benzyl-6-(3,5-dimethylisoxazol-4-yl)-3-methyl-1H-benzo[d]imidazol-2(3H)-one]: the IC50 in test [1], in test [3] and in test [4] was no more than 0.3 µM in each case.

For `Cc1noc(C)c1-c1cnc2nc(NC3CCC(O)CC3)n(Cc3ccccc3)c2c1` (stereo not shown) [compound 207, 4-((1-benzyl-6-(3,5-dimethylisoxazol-4-yl)-1H-imidazo[4,5-b]pyridin-2-yl)amino)cyclohexanol], the IC50 in test [1], in test [3] and in test [4] was no more than 0.3 µM throughout.
